According to patent US10420786B2, “Compositions for use in cardioplegia comprising esmolol and adenosine” (AOP ORPHAN IP AG, priority 2009, dated 2019):
Read-outs that look alike come from different tables or passages of the source.

What was measured:
[1] = pH 7.0; cited from earlier work
[2] = cited from earlier work
[3] = tested on: Langendorff perfused rat hearts; conditions: cited from earlier work
heart = assay: Arrest by esmolol on its own (applicant's finding); conditions: esmolol 0.75 mmol/L on its own
[4] = tested on: Langendorff perfused rat heart; assay: Reversibility of esmolol: treatment for 10 minutes then washout without ischaemia
Protocol: All the following experiments performed in a Langendorff perfused rat heart.
The first study is to determine the reversibility of esmolol at different concentrations after treatment with esmolol for 10 minutes then washout without ischaemia and LVDP was measured 9 minutes after starting the treatment and 3 minutes and 15 minutes after washing out the drug. The following doses were studied 0.03, 0.1, 0.3, 1, 3 mM. (n=5 each group)
It is therefore decided that esmolol concentration between 0.3 and 1 mM offers reasonable arresting effect with good reversibility profile.

Compound	partition coefficient (octanol/water) [1]	solubility in alcohol [2]	solubility in water [2]	reversibility of arrest ([3]; esmolol 0.75 mmol/L)	reversibility of arrest ([3]; esmolol 1.5 mmol/L)	esmolol concentration that can cause cardiac arrest ([3]; in-vitro studies)	induction of effective arrest (heart)	reversibility (LVDP recovery) profile after washout ([4]; 0.3 mM compared with 1 mM esmolol)	esmolol concentration required to induce arrest ([4]; esmolol alone, doses 0.03, 0.1, 0.3, 1, 3 mM)
CC(C)NCC(O)COc1cccc2ccccc12 (stereo not drawn) [propranolol]	17.0	–	–	–	–	–	–	–	–
Nc1ncnc2c1ncn2[C@@H]1O[C@H](CO)[C@@H](O)[C@H]1O [Adenosine, (2R,3R,4S,5R)-2-(6-amino-9H-purin-9-yl)-5-(hydroxymethyl)oxolane-3,4-diol]	–	practically insoluble	soluble	–	–	–	–	–	–
COC(=O)CCc1ccc(OCC(O)CNC(C)C)cc1.Cl (racemic) [Esmolol, (±)-Methyl p-[2-hydroxy-3-(isopropylamino)propoxy] hydrocinnamate hydrochloride]	0.42	freely soluble	very soluble	easily reversible	slowly reversible with poor recovery	higher than 1 mmol/L	not sufficient to induce effective arrest	better reversibility (LVDP recovery) profile	1 mM
